Each molecule was assayed against T1, USP28 (USP28-5(1-1077)-TEV-6*His; LifeSensors) (Homo sapiens, UniProt Q96RU2) (assay: Ubiquitin-Rhodamine 110 Assay for USP28 Activity, Example A-1(b)). Details: Ub-Rh110 assay, Example A-1(b).
T1 construct: construct USP28 (USP28-5(1-1077)-TEV-6*His; LifeSensors); TEV cleavage site (C); 6xHis (C); purchased LifeSensors
T1 sequence (Q96RU2 1-1077): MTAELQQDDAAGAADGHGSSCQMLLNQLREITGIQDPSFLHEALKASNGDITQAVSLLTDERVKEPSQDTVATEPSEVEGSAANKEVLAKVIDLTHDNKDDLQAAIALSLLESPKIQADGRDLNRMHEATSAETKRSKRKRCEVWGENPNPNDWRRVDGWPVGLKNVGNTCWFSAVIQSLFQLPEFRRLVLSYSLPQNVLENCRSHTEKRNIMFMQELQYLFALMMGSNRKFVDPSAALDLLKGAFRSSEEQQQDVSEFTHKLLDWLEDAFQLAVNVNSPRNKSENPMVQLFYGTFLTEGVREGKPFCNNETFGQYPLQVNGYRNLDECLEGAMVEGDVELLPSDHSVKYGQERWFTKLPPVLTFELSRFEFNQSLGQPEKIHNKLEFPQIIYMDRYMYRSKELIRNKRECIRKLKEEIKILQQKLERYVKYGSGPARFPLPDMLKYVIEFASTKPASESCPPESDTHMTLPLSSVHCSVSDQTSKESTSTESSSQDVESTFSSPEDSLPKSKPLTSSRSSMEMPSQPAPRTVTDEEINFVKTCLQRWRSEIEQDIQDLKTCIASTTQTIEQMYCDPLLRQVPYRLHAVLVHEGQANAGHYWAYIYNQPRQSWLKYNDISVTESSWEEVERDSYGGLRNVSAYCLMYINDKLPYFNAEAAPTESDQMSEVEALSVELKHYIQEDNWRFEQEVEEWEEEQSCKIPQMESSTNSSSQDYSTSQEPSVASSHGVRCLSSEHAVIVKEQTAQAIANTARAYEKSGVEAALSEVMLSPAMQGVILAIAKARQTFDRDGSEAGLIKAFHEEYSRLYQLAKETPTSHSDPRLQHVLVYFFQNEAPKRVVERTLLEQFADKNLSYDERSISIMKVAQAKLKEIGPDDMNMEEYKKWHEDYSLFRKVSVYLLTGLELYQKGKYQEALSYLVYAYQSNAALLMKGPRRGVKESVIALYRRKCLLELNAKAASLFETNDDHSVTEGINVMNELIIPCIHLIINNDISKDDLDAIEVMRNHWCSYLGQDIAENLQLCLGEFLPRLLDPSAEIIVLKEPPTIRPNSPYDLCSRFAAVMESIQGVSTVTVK
Format: biochemical
Method in brief: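 Single-point screening used 10 μM compound with 90 min room-temperature incubation; follow-up dose-responses (25 μM top, 3-fold) used 75 pM USP28 1-1077 construct, 30 min compound preincubation, 25 nM Ub-Rh110, 20 min reaction, citric acid quench. Rh110 fluorescence normalised to no-enzyme and DMSO controls; IC50 from 4-parameter logistic fit.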

SMILES	USP28 A-1(b) IC50 range
CCn1ccc2cc(C(=O)N[C@H]3COc4cc(N5CC6CNCC(C5)C6(F)F)ccc4C3)cnc21 [Example 2-30, N-((3R)-7-(9,9-difluoro-3,7-diazabicyclo[3.3.1]nonan-3-yl)chroman-3-yl)-1-ethyl-1H-pyrrolo[2,3-b]pyridine-5-carboxamide]	++++ (0.001-0.05 μM)
Cc1cnc2c(N)c(C(=O)N[C@H]3COc4cc(N5CCNCC5)ccc4C3)sc2n1 (single isomer, unassigned) [Example 1-21]	++ (0.2-2 μM)
Cc1ccc2c(N)c(C(=O)N[C@H]3COc4cc(N5CCC[C@](N)(C(F)(F)F)C5)ccc4C3)sc2n1 (single isomer, unassigned) [Example 3-4]	+++ (0.05-0.2 μM)
Cc1cnc2c(N)c(C(=O)N[C@H]3CCc4c(ccc(N5CCNCC5)c4C)C3)sc2n1 (single isomer, unassigned) [Example 2-36]	+ (>2 μM)
Cc1ccc2c(N)c(C(=O)N[C@@H]3COc4cc(N5CCN[C@H](C)[C@@H]5C)ccc4C3)sc2n1 (single isomer, unassigned) [Example 1-10]	++ (0.2-2 μM)
Cc1cc(C)c2c(N)c(C(=O)N[C@H]3COc4cc(N5CC6CC(C5)N6)ccc4C3)sc2n1 [Example 2-18, N-((3R)-7-(3,6-diazabicyclo[3.1.1]heptan-3-yl)chroman-3-yl)-3-amino-4,6-dimethylthieno[2,3-b]pyridine-2-carboxamide]	+++ (0.05-0.2 μM)
Cc1ccc2c(N)c(C(=O)N[C@H]3COc4cc(N5CCN[C@@H](C)[C@@H]5C)ccc4C3)sc2n1 (single isomer, unassigned) [Example 1-13]	++ (0.2-2 μM)
Cc1ccc2c(N)c(C(=O)N[C@H]3COc4cc(N5C6CCC5CNC6)ccc4C3)sc2n1 [Example 2-6, N-((3R)-7-(3,8-diazabicyclo[3.2.1]octan-8-yl)chroman-3-yl)-3-amino-6-methylthieno[2,3-b]pyridine-2-carboxamide]	+++ (0.05-0.2 μM)
COc1nc2sc(C(=O)N[C@H]3COc4cc(N5CCNCC5)ccc4C3)c(N)c2cc1F [Example 2-16, (R)-3-amino-5-fluoro-6-methoxy-N-(7-(piperazin-1-yl)chroman-3-yl)thieno[2,3-b]pyridine-2-carboxamide]	++ (0.2-2 μM)
Cc1cnc2c(N)c(C(=O)N[C@H]3COc4cc(N5CC6COCC(C5)N6)ccc4C3)sc2n1 [Example 2-12, N-((3R)-7-(3-oxa-7,9-diazabicyclo[3.3.1]nonan-7-yl)chroman-3-yl)-7-amino-3-methylthieno[2,3-b]pyrazine-6-carboxamide]	++ (0.2-2 μM)
